Results taken from PubChem BioAssay (NCI).
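1) Cells in 96-well plates. 2) Compound, 48 h, 5 concentrations. 3) Linear interpolation between surrounding doses. 4) Unreached endpoint = highest concentration. GI50 is the concentration that inhibits growth by half. TGI marks complete inhibition of growth.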

Assays:
Experiment in all cases: inhibition of tumour cell growth, NCI panel, 48 h
786-0 renal = test system: 786-0 renal
A549 NSCLC = test system: A549 NSCLC
ACHN renal = test system: ACHN renal
BT-549 breast = test system: BT-549 breast
CAKI-1 renal = test system: CAKI-1 renal
CCRF-CEM leukemia = test system: CCRF-CEM leukemia
COLO 205 colon = test system: COLO 205 colon
DU-145 prostate = test system: DU-145 prostate
EKVX NSCLC = test system: EKVX NSCLC
HCC-2998 colon = test system: HCC-2998 colon
HCT-116 colon = test system: HCT-116 colon
HCT-15 colon = test system: HCT-15 colon
HL-60(TB) leukemia = test system: HL-60(TB) leukemia
HOP-62 NSCLC = test system: HOP-62 NSCLC
HOP-92 NSCLC = test system: HOP-92 NSCLC
HS 578T breast = test system: HS 578T breast
HT29 colon = test system: HT29 colon
IGROV1 ovarian = test system: IGROV1 ovarian
K-562 leukemia = test system: K-562 leukemia
KM12 colon = test system: KM12 colon
LOX IMVI melanoma = test system: LOX IMVI melanoma
M14 melanoma = test system: M14 melanoma
MALME-3M melanoma = test system: MALME-3M melanoma
MCF7 breast = test system: MCF7 breast
MDA-MB-231 breast = test system: MDA-MB-231 breast
MDA-MB-435 = test system: MDA-MB-435
MOLT-4 leukemia = test system: MOLT-4 leukemia
NCI-H226 lung = test system: NCI-H226 lung
NCI-H23 lung = test system: NCI-H23 lung
NCI-H460 lung = test system: NCI-H460 lung
NCI-H522 lung = test system: NCI-H522 lung
NCI/ADR-RES ovarian = test system: NCI/ADR-RES ovarian
OVCAR-3 ovarian = test system: OVCAR-3 ovarian
OVCAR-4 ovarian = test system: OVCAR-4 ovarian
OVCAR-5 ovarian = test system: OVCAR-5 ovarian
OVCAR-8 ovarian = test system: OVCAR-8 ovarian
PC-3 prostate = test system: PC-3 prostate
RPMI-8226 leukemia = test system: RPMI-8226 leukemia
RXF 393 renal = test system: RXF 393 renal
SF-268 CNS = test system: SF-268 CNS
SF-295 CNS = test system: SF-295 CNS
SF-539 CNS = test system: SF-539 CNS
SK-MEL-2 melanoma = test system: SK-MEL-2 melanoma
SK-MEL-28 melanoma = test system: SK-MEL-28 melanoma
SK-MEL-5 melanoma = test system: SK-MEL-5 melanoma
SNB-19 CNS = test system: SNB-19 CNS
SNB-75 CNS = test system: SNB-75 CNS
SR leukemia = test system: SR leukemia
SW-620 colon = test system: SW-620 colon
TK-10 renal = test system: TK-10 renal
U251 CNS = test system: U251 CNS
UACC-257 melanoma = test system: UACC-257 melanoma
UACC-62 melanoma = test system: UACC-62 melanoma
UO-31 renal = test system: UO-31 renal
SK-OV-3 ovarian = test system: SK-OV-3 ovarian
SN12C renal = test system: SN12C renal
A498 renal = test system: A498 renal
T-47D breast = test system: T-47D breast

## O=C1C(Cl)=C(Nc2ccc(S(=O)(=O)O)cc2)C(=O)c2ccccc21
786-0 renal
  TGI: 84.6 µM
A549 NSCLC
  TGI: 58.7 µM
ACHN renal
  TGI: 45.8 µM
BT-549 breast
  TGI: > 100 µM
CAKI-1 renal
  TGI: > 100 µM
CCRF-CEM leukemia
  TGI: > 100 µM
COLO 205 colon
  TGI: 75.6 µM
DU-145 prostate
  TGI: 36.5 µM
EKVX NSCLC
  TGI: 52.5 µM
HCC-2998 colon
  TGI: > 100 µM
HCT-116 colon
  TGI: > 100 µM
HCT-15 colon
  TGI: > 100 µM
HL-60(TB) leukemia
  TGI: > 100 µM
HOP-62 NSCLC
  TGI: > 100 µM
HOP-92 NSCLC
  TGI: 34.6 µM
HS 578T breast
  TGI: 52.8 µM
HT29 colon
  TGI: > 100 µM
IGROV1 ovarian
  TGI: > 100 µM
K-562 leukemia
  TGI: 94.2 µM
KM12 colon
  TGI: 56.3 µM
LOX IMVI melanoma
  TGI: 80 µM
M14 melanoma
  TGI: 47.1 µM
MALME-3M melanoma
  TGI: 36.9 µM
MCF7 breast
  TGI: 49.1 µM
MDA-MB-231 breast
  TGI: > 100 µM
MDA-MB-435
  TGI: 39.6 µM
MOLT-4 leukemia
  TGI: > 100 µM
NCI-H226 lung
  TGI: 61.9 µM
NCI-H23 lung
  TGI: > 100 µM
NCI-H460 lung
  TGI: > 100 µM
NCI-H522 lung
  TGI: 33.5 µM
NCI/ADR-RES ovarian
  TGI: > 100 µM
OVCAR-3 ovarian
  TGI: 43.4 µM
OVCAR-4 ovarian
  TGI: > 100 µM
OVCAR-5 ovarian
  TGI: > 100 µM
OVCAR-8 ovarian
  TGI: 90.6 µM
PC-3 prostate
  TGI: 69.5 µM
RPMI-8226 leukemia
  TGI: 70.1 µM
RXF 393 renal
  TGI: 37.6 µM
SF-268 CNS
  TGI: > 100 µM
SF-295 CNS
  TGI: 82.5 µM
SF-539 CNS
  TGI: 57.9 µM
SK-MEL-2 melanoma
  TGI: 59.6 µM
SK-MEL-28 melanoma
  TGI: 83.2 µM
SK-MEL-5 melanoma
  TGI: 28 µM
SNB-19 CNS
  TGI: > 100 µM
SNB-75 CNS
  TGI: > 100 µM
SR leukemia
  TGI: > 100 µM
SW-620 colon
  TGI: 51.1 µM
TK-10 renal
  TGI: 42.9 µM
U251 CNS
  TGI: > 100 µM
UACC-257 melanoma
  TGI: > 100 µM
UACC-62 melanoma
  TGI: > 100 µM
UO-31 renal
  TGI: 29.2 µM

## COc1ccc(CC2(O)C3CC4CCC2C4C3)cc1 (configuration not stated)
786-0 renal
  TGI: > 100 µM
A549 NSCLC
  TGI: > 100 µM
ACHN renal
  TGI: > 100 µM
BT-549 breast
  TGI: > 100 µM
CAKI-1 renal
  TGI: > 100 µM
CCRF-CEM leukemia
  TGI: > 100 µM
COLO 205 colon
  TGI: > 100 µM
EKVX NSCLC
  TGI: > 100 µM
HCT-15 colon
  TGI: > 100 µM
HL-60(TB) leukemia
  TGI: > 100 µM
HOP-62 NSCLC
  TGI: > 100 µM
HOP-92 NSCLC
  TGI: > 100 µM
HS 578T breast
  TGI: > 100 µM
HT29 colon
  TGI: > 100 µM
IGROV1 ovarian
  TGI: > 100 µM
K-562 leukemia
  TGI: > 100 µM
KM12 colon
  TGI: > 100 µM
LOX IMVI melanoma
  TGI: > 100 µM
M14 melanoma
  TGI: > 100 µM
MALME-3M melanoma
  TGI: > 100 µM
MCF7 breast
  TGI: > 100 µM
MDA-MB-435
  TGI: > 100 µM
MOLT-4 leukemia
  TGI: > 100 µM
NCI-H226 lung
  TGI: > 100 µM
NCI-H23 lung
  TGI: > 100 µM
NCI-H460 lung
  TGI: > 100 µM
NCI-H522 lung
  TGI: > 100 µM
NCI/ADR-RES ovarian
  TGI: > 100 µM
OVCAR-3 ovarian
  TGI: > 100 µM
OVCAR-4 ovarian
  TGI: > 100 µM
OVCAR-5 ovarian
  TGI: > 100 µM
OVCAR-8 ovarian
  TGI: > 100 µM
PC-3 prostate
  TGI: > 100 µM
RPMI-8226 leukemia
  TGI: > 100 µM
SF-268 CNS
  TGI: > 100 µM
SF-295 CNS
  TGI: > 100 µM
SK-MEL-2 melanoma
  TGI: > 100 µM
SK-MEL-28 melanoma
  TGI: > 100 µM
SK-MEL-5 melanoma
  TGI: > 100 µM
SK-OV-3 ovarian
  TGI: > 100 µM
SN12C renal
  TGI: > 100 µM
SNB-19 CNS
  TGI: > 100 µM
SNB-75 CNS
  TGI: > 100 µM
SR leukemia
  TGI: > 100 µM
SW-620 colon
  TGI: > 100 µM
TK-10 renal
  TGI: > 100 µM
U251 CNS
  TGI: > 100 µM
UACC-257 melanoma
  TGI: > 100 µM
UACC-62 melanoma
  TGI: > 100 µM
UO-31 renal
  TGI: > 100 µM

## CCCCCCCCCCCCCCCCCC1=NCCN1CCOC1=C(Cl)C(=O)c2ccccc2C1=O
786-0 renal
  GI50: 2.19 µM
  TGI: 4.09 µM
A498 renal
  GI50: 3.92 µM
  TGI: 14.7 µM
A549 NSCLC
  GI50: 4.48 µM
  TGI: 22.9 µM
ACHN renal
  GI50: 1.58 µM
  TGI: 3.01 µM
BT-549 breast
  GI50: 2.46 µM
  TGI: 6.12 µM
CAKI-1 renal
  GI50: 1.57 µM
  TGI: 2.98 µM
CCRF-CEM leukemia
  GI50: 0.527 µM
  TGI: 7.17 µM
COLO 205 colon
  GI50: 1.67 µM
  TGI: 3.09 µM
DU-145 prostate
  GI50: 6.09 µM
  TGI: 18.1 µM
EKVX NSCLC
  GI50: 1.46 µM
  TGI: 3.32 µM
HCC-2998 colon
  GI50: 3.51 µM
  TGI: 12.3 µM
HCT-116 colon
  GI50: 1.82 µM
  TGI: 3.43 µM
HL-60(TB) leukemia
  GI50: 1.34 µM
  TGI: 6 µM
HOP-62 NSCLC
  GI50: 1.77 µM
  TGI: 3.27 µM
HOP-92 NSCLC
  GI50: 1.78 µM
  TGI: 3.4 µM
HT29 colon
  GI50: 2.58 µM
  TGI: 6.13 µM
K-562 leukemia
  GI50: 0.828 µM
  TGI: 4.2 µM
KM12 colon
  GI50: 1.91 µM
  TGI: 3.61 µM
M14 melanoma
  GI50: 1.84 µM
  TGI: 3.39 µM
MALME-3M melanoma
  GI50: 1.95 µM
  TGI: 4.13 µM
MDA-MB-231 breast
  GI50: 2.05 µM
  TGI: 5.03 µM
MDA-MB-435
  GI50: 2.05 µM
  TGI: 4.02 µM
MOLT-4 leukemia
  GI50: 0.747 µM
  TGI: 3.8 µM
NCI-H23 lung
  GI50: 2.5 µM
  TGI: 7.73 µM
NCI-H460 lung
  GI50: 3.33 µM
  TGI: 16.1 µM
NCI-H522 lung
  GI50: 1.79 µM
  TGI: 3.38 µM
OVCAR-3 ovarian
  GI50: 1.85 µM
  TGI: 3.34 µM
OVCAR-5 ovarian
  GI50: 2.29 µM
  TGI: 5.27 µM
OVCAR-8 ovarian
  GI50: 1.95 µM
  TGI: 4.43 µM
PC-3 prostate
  GI50: 1.85 µM
  TGI: 4.27 µM
RPMI-8226 leukemia
  GI50: 2.17 µM
  TGI: 5.28 µM
RXF 393 renal
  GI50: 1.79 µM
  TGI: 3.2 µM
SF-268 CNS
  GI50: 2.08 µM
  TGI: 4.61 µM
SF-539 CNS
  GI50: 1.83 µM
  TGI: 3.78 µM
SK-MEL-2 melanoma
  GI50: 2.39 µM
  TGI: 5.08 µM
SK-MEL-28 melanoma
  GI50: 3.31 µM
  TGI: 9.05 µM
SK-MEL-5 melanoma
  GI50: 2.36 µM
  TGI: 6.75 µM
SK-OV-3 ovarian
  GI50: 1.93 µM
  TGI: 5.11 µM
SN12C renal
  GI50: 3.18 µM
  TGI: 9.47 µM
SNB-19 CNS
  GI50: 3.56 µM
  TGI: 11.5 µM
SNB-75 CNS
  GI50: 2.2 µM
  TGI: 8.54 µM
SR leukemia
  GI50: 2.07 µM
  TGI: 4.72 µM
SW-620 colon
  GI50: 1.73 µM
  TGI: 3.41 µM
T-47D breast
  GI50: 1.86 µM
  TGI: 4.43 µM
TK-10 renal
  GI50: 2.19 µM
  TGI: 3.76 µM
U251 CNS
  GI50: 1.87 µM
  TGI: 3.67 µM
UACC-257 melanoma
  GI50: 1.83 µM
  TGI: 3.3 µM
UACC-62 melanoma
  GI50: 2.12 µM
  TGI: 4.99 µM
UO-31 renal
  GI50: 1.37 µM
  TGI: 2.77 µM
